# From patent EP0550016A1, “Novel quinolone carboxylic acid derivatives and processes for preparing same” (KOREA RESEARCH INSTITUTE OF CHEMICAL TECHNOLOGY, priority 1991, dated 1993)
# Read-outs that look alike come from different tables or passages of the source.
# How the values were obtained:
# Test in all cases: In vitro anti-bacterial activity test (MIC, two-fold dilution method) against the standard strains
# Format in all cases: cell-based
# [1] = tested on: Streptococcus pyogenes 308 A; details: Table 1 strain 1: Streptococcus pyogenes 308 A
# [2] = tested on: Streptococcus pyogenes 77 A; details: Table 1 strain 2: Streptococcus pyogenes 77 A; read-out: MIC
# [3] = tested on: Streptococcus faecium MD 8b; details: Enterococcus faecium, MD8B; Table 1 strain 3: Streptococcus faecium MD 8b; read-out: MIC
# [4] = tested on: Staphylococcus aureus SG 511; details: SG511; Table 1 strain 4: Staphylococcus aureus SG 511
# [5] = tested on: Staphylococcus aureus 285; details: Table 1 strain 5: Staphylococcus aureus 285; read-out: MIC
# [6] = tested on: Staphylococcus aureus 503; details: Table 1 strain 6: Staphylococcus aureus 503; read-out: MIC
# [7] = tested on: Escherichia coli DC 0; details: DC0; Table 1 strain 7: Escherichia coli DC 0
# [8] = tested on: Escherichia coli DC 0; details: DC0; Table 1 strain 8: Escherichia coli DC 0
# [9] = tested on: Escherichia coli DC 2; details: DC2
# [10] = tested on: Escherichia coli OTEM; details: Table 1 strain 10: Escherichia coli OTEM
# [11] = tested on: Escherichia coli 1507 E; details: Table 1 strain 11: Escherichia coli 1507 E
# [12] = tested on: Pseudomonas aeruginosa 9027; details: Table 1 strain 12: Pseudomonas aeruginosa 9027
# [13] = tested on: Pseudomonas aeruginosa 1592 E; details: Table 1 strain 13: Pseudomonas aeruginosa 1592 E
# [14] = tested on: Pseudomonas aeruginosa 1771; details: Table 1 strain 14: Pseudomonas aeruginosa 1771
# [15] = tested on: Pseudomonas aeruginosa 1771 M; details: Table 1 strain 15: Pseudomonas aeruginosa 1771 M
# [16] = tested on: Salmonella typhimurium; details: Salmonella enterica; Table 1 strain 16: Salmonella typhimurium
# [17] = tested on: Klebsiella aerogenes 1082 E; details: Table 1 strain 17: Klebsiella aerogenes 1082 E
# [18] = tested on: Klebsiella aerogenes 1522 E; details: Table 1 strain 18: Klebsiella aerogenes 1522 E
# [19] = tested on: Enterobacter cloacae P 99; details: P99; Table 1 strain 19: Enterobacter cloacae P 99
# [20] = tested on: Enterobacter cloacae 1321 E; details: Table 1 strain 20: Enterobacter cloacae 1321 E
# [21] = Table 1 strain 9: Escherichia coli DC 2, read-out: MIC
SMILES,MIC [1],MIC [2],MIC [3],MIC [4],MIC [5],MIC [6],MIC [7],MIC [8],"MIC [9, 21]",MIC [10],MIC [11],MIC [12],MIC [13],MIC [14],MIC [15],MIC [16],MIC [17],MIC [18],MIC [19],MIC [20],other results
"NC1CC12CCN(c1nc3c(cc1F)c(=O)c(C(=O)O)cn3C1CC1)C2 (stereo not shown) [Example 6, 7-(1-amino-5-azaspiro[2,4]heptane-5-yl)-1-cyclopropyl-6-fluoro-4-oxo-1,4-dihydro-1,8-naphthyridine-3-carboxylic acid]",0.391 µg/mL,0.195 µg/mL,0.195 µg/mL,0.049 µg/mL,0.049 µg/mL,0.049 µg/mL,< 0.002 µg/mL,0.391 µg/mL,0.098 µg/mL,0.025 µg/mL,0.025 µg/mL,1.56 µg/mL,1.56 µg/mL,1.56 µg/mL,0.195 µg/mL,0.025 µg/mL,0.391 µg/mL,0.025 µg/mL,0.007 µg/mL,< 0.002 µg/mL,–
"CNC1CC12CCN(c1cc3c(cc1F)c(=O)c(C(=O)O)cn3C1CC1)C2 (stereo not shown) [Example 11, 7-(1-methylamino-5-azaspiro[2,4]heptane-5-yl)-1-cyclopropyl-6-fluoro-1,4-dihydro-4-oxoquinoline-3-carboxylic acid]",0.781 µg/mL,0.781 µg/mL,0.781 µg/mL,0.098 µg/mL,0.098 µg/mL,0.098 µg/mL,0.049 µg/mL,1.56 µg/mL,0.195 µg/mL,0.098 µg/mL,0.098 µg/mL,3.12 µg/mL,3.12 µg/mL,3.12 µg/mL,0.781 µg/mL,0.098 µg/mL,0.004 µg/mL,0.098 µg/mL,0.098 µg/mL,0.049 µg/mL,–
"CNC1CC12CCN(c1c(F)c(N)c3c(=O)c(C(=O)O)cn(C4CC4)c3c1F)C2 (stereo not shown) [Example 12, 7-(1-methylamino-5-azaspiro[2,4]heptane-5-yl)-1-cyclopropyl-5-amino-6,8-difluoro-1,4-dihydro-4-oxoquinoline-3-carboxylic acid]",0.195 µg/mL,0.195 µg/mL,0.195 µg/mL,0.025 µg/mL,0.025 µg/mL,0.025 µg/mL,0.025 µg/mL,0.391 µg/mL,0.195 µg/mL,0.049 µg/mL,0.049 µg/mL,3.12 µg/mL,3.12 µg/mL,1.56 µg/mL,0.391 µg/mL,0.049 µg/mL,< 0.002 µg/mL,0.098 µg/mL,0.049 µg/mL,0.025 µg/mL,–
"CC(O)C(=O)O.NC1CC12CCN(c1c(F)cc3c(=O)c(C(=O)O)cn(C4CC4)c3c1Cl)C2 (stereo not shown) [Example 4, 7-(1-amino-5-azaspiro[2,4]heptane-5-yl)-8-chloro-1-cyclopropyl-6-fluoro-1,4-dihydro-4-oxoquinoline-3-carboxylic acid lactate]",0.098 µg/mL,0.049 µg/mL,0.098 µg/mL,0.025 µg/mL,0.025 µg/mL,0.013 µg/mL,0.007 µg/mL,0.098 µg/mL,–,0.025 µg/mL,0.025 µg/mL,0.781 µg/mL,0.781 µg/mL,0.781 µg/mL,0.195 µg/mL,0.025 µg/mL,< 0.002 µg/mL,0.025 µg/mL,0.025 µg/mL,0.007 µg/mL,MIC ([9]; Escherichia coli): 0.049 µg/mL
"NC1CC12CCCN(c1c(F)cc3c(=O)c(C(=O)O)cn(C4CC4)c3c1F)C2 (stereo not shown) [Example 16, 7-(1-amino-5-azaspiro[2,5]octane-5-yl)-1-cyclopropyl-6,8-difluoro-1,4-dihydro-4-oxoquinoline-3-carboxylic acid]",0.781 µg/mL,0.391 µg/mL,0.391 µg/mL,0.098 µg/mL,0.098 µg/mL,0.098 µg/mL,0.049 µg/mL,1.56 µg/mL,0.195 µg/mL,0.098 µg/mL,0.098 µg/mL,6.25 µg/mL,3.12 µg/mL,3.12 µg/mL,0.781 µg/mL,0.049 µg/mL,0.013 µg/mL,0.098 µg/mL,0.049 µg/mL,0.049 µg/mL,–
"CNC1CC12CCN(c1c(F)cc3c(=O)c(C(=O)O)cn4c3c1OC[C@@H]4C)C2 (stereo partly drawn) [Example 10, 9-fluoro-3-(S)-methyl-10-(1-methylamino-5-azaspiro[2,4]heptane-5-yl)-7-oxo-2,3-dihydro-7H-pyrido-[1,2,3-de]-1,4-benzoxazine-6-carboxylic acid]",0.391 µg/mL,0.195 µg/mL,0.195 µg/mL,0.049 µg/mL,0.049 µg/mL,0.049 µg/mL,0.025 µg/mL,0.391 µg/mL,0.049 µg/mL,0.049 µg/mL,0.098 µg/mL,1.56 µg/mL,1.56 µg/mL,1.56 µg/mL,0.781 µg/mL,0.049 µg/mL,0.007 µg/mL,0.098 µg/mL,0.049 µg/mL,0.025 µg/mL,–
"COc1c(N2CCC3(CC3N)C2)c(F)cc2c(=O)c(C(=O)O)cn(C3CC3)c12 (stereo not shown) [Example 19, 7-(1-amino-5-azaspiro[2,4]heptane-5-yl)-1-cyclopropyl-8-methoxy-6-fluoro-1,4-dihydro-4-oxoquinoline-3-carboxylic acid]",0.195 µg/mL,0.098 µg/mL,0.098 µg/mL,0.025 µg/mL,0.049 µg/mL,0.025 µg/mL,0.025 µg/mL,0.391 µg/mL,0.049 µg/mL,0.049 µg/mL,0.049 µg/mL,1.56 µg/mL,1.56 µg/mL,1.56 µg/mL,0.391 µg/mL,0.049 µg/mL,0.007 µg/mL,0.098 µg/mL,0.049 µg/mL,0.025 µg/mL,–
"NC1CC12CCN(c1cc3c(cc1F)c(=O)c(C(=O)O)cn3C1CC1)C2 (stereo not shown) [Example 5, 7-(1-amino-5-azaspiro[2,4]heptane-5-yl)-1-cyclopropyl-6-fluoro-1,4-dihydro-4-oxoquinoline-3-carboxylic acid]",0.391 µg/mL,0.391 µg/mL,0.195 µg/mL,0.098 µg/mL,0.098 µg/mL,0.098 µg/mL,0.025 µg/mL,0.781 µg/mL,0.098 µg/mL,0.049 µg/mL,0.098 µg/mL,1.56 µg/mL,1.56 µg/mL,1.56 µg/mL,0.391 µg/mL,0.049 µg/mL,0.004 µg/mL,0.049 µg/mL,0.049 µg/mL,0.025 µg/mL,–
